This note sets out measurements from BindingDB's records for patent US20240174621 (Hoffmann-La Roche, 2024).

pKd: −log10 of the molar value.

Common to all, as to assay: Kinase Assay
Assay [1] addresses Tyrosine-protein kinase Lck (Homo sapiens, UniProt P06239). An excerpt: (§1) The assay is not in detail.
Assay [2] deals with Tyrosine-protein kinase CSK (Homo sapiens, UniProt P41240).
Source text: as §1

Assay [3] has as its target Serine/threonine-protein kinase B-raf [V600E] (Homo sapiens, UniProt P15056, V600E).
Source text: as §1

The target in assay [4] is Serine/threonine-protein kinase B-raf (Homo sapiens, UniProt P15056).
Serine/threonine-protein kinase B-raf, sequence (P15056 whole entry): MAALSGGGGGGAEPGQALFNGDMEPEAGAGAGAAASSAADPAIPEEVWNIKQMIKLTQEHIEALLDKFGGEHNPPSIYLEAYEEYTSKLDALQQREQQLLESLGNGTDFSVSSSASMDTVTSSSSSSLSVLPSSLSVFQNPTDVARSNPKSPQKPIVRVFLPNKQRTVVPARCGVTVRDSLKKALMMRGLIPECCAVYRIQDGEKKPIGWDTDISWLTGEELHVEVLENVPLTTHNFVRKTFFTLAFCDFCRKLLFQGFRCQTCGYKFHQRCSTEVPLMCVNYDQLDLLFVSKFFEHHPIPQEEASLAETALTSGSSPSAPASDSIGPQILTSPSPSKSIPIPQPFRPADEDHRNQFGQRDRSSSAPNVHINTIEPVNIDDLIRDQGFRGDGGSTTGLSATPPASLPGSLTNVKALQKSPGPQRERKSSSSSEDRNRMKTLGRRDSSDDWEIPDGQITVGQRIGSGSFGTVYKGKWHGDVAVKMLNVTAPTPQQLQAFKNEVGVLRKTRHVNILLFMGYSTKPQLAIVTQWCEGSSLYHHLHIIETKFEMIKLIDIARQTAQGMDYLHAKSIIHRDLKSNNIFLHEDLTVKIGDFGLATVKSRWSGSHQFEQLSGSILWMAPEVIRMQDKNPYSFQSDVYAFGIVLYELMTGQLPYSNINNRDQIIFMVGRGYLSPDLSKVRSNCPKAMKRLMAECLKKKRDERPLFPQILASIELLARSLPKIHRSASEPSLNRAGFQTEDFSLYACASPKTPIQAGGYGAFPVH
Source text: as §1

In assay [5] the target is RAF proto-oncogene serine/threonine-protein kinase (Homo sapiens, UniProt P04049).
RAF proto-oncogene serine/threonine-protein kinase, sequence (P04049 whole entry): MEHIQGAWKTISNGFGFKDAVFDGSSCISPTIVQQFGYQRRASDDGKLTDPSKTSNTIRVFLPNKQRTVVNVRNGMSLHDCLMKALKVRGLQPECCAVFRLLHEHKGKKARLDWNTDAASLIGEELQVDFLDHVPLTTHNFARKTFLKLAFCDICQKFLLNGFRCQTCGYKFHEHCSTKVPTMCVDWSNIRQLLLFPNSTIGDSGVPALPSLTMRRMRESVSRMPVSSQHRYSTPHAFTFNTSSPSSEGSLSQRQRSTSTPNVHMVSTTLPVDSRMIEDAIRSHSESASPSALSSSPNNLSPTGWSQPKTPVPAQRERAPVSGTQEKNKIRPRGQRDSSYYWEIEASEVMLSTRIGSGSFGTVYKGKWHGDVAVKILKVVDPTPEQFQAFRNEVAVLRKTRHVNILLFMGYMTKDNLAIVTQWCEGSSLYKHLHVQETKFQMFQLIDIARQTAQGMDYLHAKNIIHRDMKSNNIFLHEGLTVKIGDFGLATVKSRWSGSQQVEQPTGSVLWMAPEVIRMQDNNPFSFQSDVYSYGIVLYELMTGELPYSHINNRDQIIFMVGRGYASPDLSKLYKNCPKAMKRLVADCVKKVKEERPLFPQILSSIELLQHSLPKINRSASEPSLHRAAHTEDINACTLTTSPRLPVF
Source text: as §1

Serine/threonine-protein kinase B-raf [V600E], sequence (P15056 2-766 V600E limits assumed): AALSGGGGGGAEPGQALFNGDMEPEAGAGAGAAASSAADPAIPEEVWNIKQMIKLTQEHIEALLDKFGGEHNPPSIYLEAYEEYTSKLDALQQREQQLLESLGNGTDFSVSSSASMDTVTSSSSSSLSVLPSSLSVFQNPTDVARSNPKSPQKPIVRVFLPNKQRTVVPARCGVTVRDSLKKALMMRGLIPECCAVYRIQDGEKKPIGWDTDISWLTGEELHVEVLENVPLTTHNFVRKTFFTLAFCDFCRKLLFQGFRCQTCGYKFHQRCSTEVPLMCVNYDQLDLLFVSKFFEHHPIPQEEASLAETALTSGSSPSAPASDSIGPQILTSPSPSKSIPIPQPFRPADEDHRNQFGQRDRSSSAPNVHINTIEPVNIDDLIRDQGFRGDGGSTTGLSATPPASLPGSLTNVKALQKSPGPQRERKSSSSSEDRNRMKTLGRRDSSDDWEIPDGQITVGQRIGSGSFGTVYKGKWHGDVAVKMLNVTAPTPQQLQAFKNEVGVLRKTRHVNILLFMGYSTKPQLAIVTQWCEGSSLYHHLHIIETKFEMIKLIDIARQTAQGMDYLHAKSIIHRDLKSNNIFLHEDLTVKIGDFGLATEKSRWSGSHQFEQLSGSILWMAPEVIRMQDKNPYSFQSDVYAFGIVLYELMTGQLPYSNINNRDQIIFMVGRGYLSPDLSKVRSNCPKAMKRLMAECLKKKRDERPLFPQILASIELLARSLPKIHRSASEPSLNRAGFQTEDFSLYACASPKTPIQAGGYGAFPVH
Tyrosine-protein kinase CSK, sequence (P41240 whole entry): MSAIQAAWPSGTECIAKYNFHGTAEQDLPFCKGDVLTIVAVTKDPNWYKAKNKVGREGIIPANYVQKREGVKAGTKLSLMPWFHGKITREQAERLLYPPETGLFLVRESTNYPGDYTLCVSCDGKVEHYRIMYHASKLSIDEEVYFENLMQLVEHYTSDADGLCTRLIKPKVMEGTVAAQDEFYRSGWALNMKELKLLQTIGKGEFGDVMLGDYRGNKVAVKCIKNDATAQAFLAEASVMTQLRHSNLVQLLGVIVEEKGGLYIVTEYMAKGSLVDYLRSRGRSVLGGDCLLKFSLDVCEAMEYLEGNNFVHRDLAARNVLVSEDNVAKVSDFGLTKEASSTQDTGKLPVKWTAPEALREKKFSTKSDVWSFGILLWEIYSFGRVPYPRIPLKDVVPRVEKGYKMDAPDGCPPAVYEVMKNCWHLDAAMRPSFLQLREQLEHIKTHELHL
Tyrosine-protein kinase Lck, sequence (P06239 whole entry): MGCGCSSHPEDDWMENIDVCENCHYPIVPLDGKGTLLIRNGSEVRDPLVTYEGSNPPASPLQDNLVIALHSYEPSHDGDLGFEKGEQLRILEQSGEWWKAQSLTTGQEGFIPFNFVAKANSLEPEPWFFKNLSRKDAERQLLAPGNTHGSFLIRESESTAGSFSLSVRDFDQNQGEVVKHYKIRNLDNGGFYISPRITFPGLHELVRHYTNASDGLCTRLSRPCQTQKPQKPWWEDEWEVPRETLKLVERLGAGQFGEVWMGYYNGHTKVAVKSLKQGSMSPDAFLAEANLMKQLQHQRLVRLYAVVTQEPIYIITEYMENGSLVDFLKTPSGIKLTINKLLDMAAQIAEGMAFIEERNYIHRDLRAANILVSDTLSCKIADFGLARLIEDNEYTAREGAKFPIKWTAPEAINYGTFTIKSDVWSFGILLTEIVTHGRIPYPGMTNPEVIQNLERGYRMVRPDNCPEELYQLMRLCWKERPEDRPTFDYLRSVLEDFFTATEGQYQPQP

For `Cn1cnc2ccc(Oc3c(Cl)ccc(NS(=O)(=O)N4CCCC4)c3C#N)cc2c1=O` [US20240174621, Example AR-31], the pKd – broadly, the Kd on a negative log10 scale, so that one unit is a factor of ten – in assay [1] was 4.92; in assay [2] it was 5.92; in assay [3], 6.92; in assay [4] it was 7.34; in assay [5], 6.72.

`CN(C)S(=O)(=O)Nc1ccc(Cl)c(Oc2ccc3ncn(C)c(=O)c3c2)c1C#N` [US20240174621, Example AR-30]: the pKd in assay [1] is 4.98; in assay [2] it was 5.10; in assay [3], 6.30; in assay [4] it was 6.76; in assay [5], 6.09.
